Data as given in patent US10457639B2, “Fluorescent regulators of RASSF1A expression and human cancer cell proliferation” (GEORGETOWN UNIVERSITY, priority 2008, dated 2019).

Tests used:
[1] = system: DNA methyltransferase (DNMT); assay: DNA methyltransferase activity assay (EpiQuik kit, nuclear extracts of treated PC-3 cells); type: cell-based, human; settings: 72 hours, 5 μM (FIG. 7 legend; method says 2 μM)
Experimental: Black bars: PC-3 cells were treated 72 hours with either mahanine or compound 6a at 5 μM or compound 6, 7, 7a, 8, or 9 at 15 μM and then assayed for DNMT activity using the DNMT activity kit from Epigentek. Data are mean of three independent experiments ±SEM. Grey bars: Densitometry from RT-PCR blot where the amount of RASSF1A mRNA re-expressed by mahanine treatment is normalized to 100%.
DNA methyltransferase activity assay. PC-3 cells were plated in complete growth media, treated with either mahanine or compound 6a at 2 μM or compound 6, 7, 7a, 8, 9, 10 at 15 μM for 3 days and then harvested. Nuclear extracts were prepared according to manufacturer's protocol (Nuclear extraction kit, Epigentek). DNMT activity was measured using an EpiQuik DNA methyltransferase activity assay kit (Epigentek). Results were expressed as percent DNMT activity compared to the DMSO control as 100%.
The levels of DNMT activity in treated versus untreated prostate cancer cells were measured using a DNMT assay kit from Epigentek. […] These reduced DNMT activities correlate with the pattern of RASSF1A induction described above (FIG. 7, grey bars). The data imply that inhibition of DNMT prevents hypermethylation of the RASSF1A promoter region and consequently restores RASSF1A.

DNMT3b = target: T1, DNMT3b (Homo sapiens, UniProt Q9UBC3); assay: Multiphoton laser imaging, DNMT3b antibody staining; type: cell-based; settings: PC-3 cells, 5 μM
T1 construct: endogenous in cells; host or cells: PC-3 human prostate cancer cells
Experimental: (A) Fluorescent spectrum of compound 6a; (B) PC-3 cells were treated with a 5 μM solution of compound 6a for 1 hr before being fixed and stained with propidium iodide and DNMT3b antibody; (C) Cells were treated with a 5 μM solution of compound 6a for 6 hr before fixation; (D) Cells were treated with a 5 μM solution of DMSO for 6 hr before fixation. The frames in each set of images are from left to right, top to bottom: propidium iodide; clear field; DNA methyltransferase 3b (DNMT3b); compound 6a or vehicle; and merged. Compound 6a was excited at 725 nm with a multiphoton laser and imaged with a 500-550 nm filter. Arrows indicate representative cells in which DNMT3b is solely in the cytoplasm.
Multiphoton laser imaging. After incubating slides with a fibronectin/cortactin solution for 30 minutes, PC-3 cells were plated onto the slides and incubated overnight. The cells were then treated with a 5 μM solution of compound 6a or DMSO control and incubated for 1-6 hour before washing with PBS. The slides were fixed with a 4% formaldehyde solution, washed with PBS then treated with propidium iodide (nuclear localization) and DNMT3a or DNMT3b. The compound was excited at 725 nm with a multiphoton laser and imaged with a 500-550 nm filter.
The dansyl moiety present in compound 6a allows it to visibly fluoresce at 552 nm when excited at 370 nm (FIG. 4A). […]

In the case of COc1ccc2c(c1)[nH]c1c(C)c(OS(=O)(=O)c3cccc4c(N(C)C)cccc34)ccc12 [Compound 6a, 7-Methoxy-1-methyl-9H-carbazol-2-yl 5-(dimethylamino)naphthalene-1-sulfonate], the “DNMT activity versus DMSO control” value [1] is reported as “most potent inhibition”, the DNMT3b localization (DNMT3b; one hour) is reported as “a population of treated cells that have DNMT3b only in the cytoplasm” and the DNMT3b localization (DNMT3b; six hours) is reported as “majority of treated cells having DNMT3b only in the cytoplasm”.
